Measured values published in ChEMBL document CHEMBL1201862, “PubChem BioAssay data set” (2004).
Calls of active or inactive are those of the source.

How the values were obtained:
Beta-galactosidase = Beta-galactosidase (Escherichia coli, UniProt Q8VNN2); experiment: beta-galactosidase enzyme inhibitors and activators, dose response, artefact control for CCR6 antagonist project, biochemical, E. coli enzyme, set 3 (AID 504712); format: functional
[1] = molecular target: C-X-C chemokine receptor type 5 (Homo sapiens, UniProt P32302); experiment: CXCR5 receptor antagonists, SAR follow-up, selectivity assay for CCR6 antagonist project, cell-based, beta-arrestin, luminescence, CHO-K1 PathHunter (AID 540340); format: functional
[2] = molecular target: T1, C-C chemokine receptor type 6 (Homo sapiens, UniProt P51684); experiment: CCR6 receptor antagonists, SAR follow-up, cell-based, luminescent beta-arrestin readout (AID 540334); format: functional
T1 sequence (P51684 whole entry): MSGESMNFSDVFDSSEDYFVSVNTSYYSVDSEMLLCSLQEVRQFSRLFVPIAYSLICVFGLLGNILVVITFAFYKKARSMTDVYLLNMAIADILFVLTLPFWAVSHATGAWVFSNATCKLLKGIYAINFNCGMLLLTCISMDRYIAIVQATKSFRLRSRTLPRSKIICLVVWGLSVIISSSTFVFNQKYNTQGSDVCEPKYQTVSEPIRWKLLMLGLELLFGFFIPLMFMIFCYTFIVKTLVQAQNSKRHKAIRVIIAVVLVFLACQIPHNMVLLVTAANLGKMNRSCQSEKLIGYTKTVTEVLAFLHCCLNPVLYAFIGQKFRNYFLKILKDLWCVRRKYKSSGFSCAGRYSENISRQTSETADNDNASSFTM

[3] = molecular target: T2, Heat shock factor protein 1 (Mus musculus, UniProt P38532); experiment: HSF1 potentiators in luciferase reporter cells, confirmation, cell-based, NIH3T3, luminescence, dose retest (AID 435004); format: functional;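 note: stress induced by proteasome inhibitor MG132 added 30 min after compound; luciferase reporter driven by HSF1 response element in NIH3T3 cells; actives raise luminescence as potentiators of the MG132 stress response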
T2 sequence (P38532 whole entry): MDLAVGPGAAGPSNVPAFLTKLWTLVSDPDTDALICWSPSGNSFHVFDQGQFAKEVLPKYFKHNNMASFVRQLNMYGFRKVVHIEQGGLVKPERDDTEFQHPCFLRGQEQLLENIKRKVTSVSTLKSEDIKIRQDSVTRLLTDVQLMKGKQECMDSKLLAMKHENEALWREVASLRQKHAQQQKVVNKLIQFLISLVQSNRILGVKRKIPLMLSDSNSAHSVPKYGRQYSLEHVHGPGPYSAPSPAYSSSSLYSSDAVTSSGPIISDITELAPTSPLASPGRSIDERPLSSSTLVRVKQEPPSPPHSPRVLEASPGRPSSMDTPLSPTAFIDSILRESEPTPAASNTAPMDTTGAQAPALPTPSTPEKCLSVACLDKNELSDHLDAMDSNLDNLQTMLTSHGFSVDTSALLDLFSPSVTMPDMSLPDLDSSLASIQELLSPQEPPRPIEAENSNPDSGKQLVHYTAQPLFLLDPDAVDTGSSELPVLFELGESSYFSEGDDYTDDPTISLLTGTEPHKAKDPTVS

Apelin receptor = Apelin receptor (Homo sapiens, UniProt P35414); experiment: APJ beta-arrestin recruitment antagonism, SAR follow-up, selectivity assay for CCR6 antagonist project, cell-based, luminescent, enzyme-fragment complementation (AID 588359); format: functional
Apelin receptor, sequence (P35414 whole entry, the tested form may be a part): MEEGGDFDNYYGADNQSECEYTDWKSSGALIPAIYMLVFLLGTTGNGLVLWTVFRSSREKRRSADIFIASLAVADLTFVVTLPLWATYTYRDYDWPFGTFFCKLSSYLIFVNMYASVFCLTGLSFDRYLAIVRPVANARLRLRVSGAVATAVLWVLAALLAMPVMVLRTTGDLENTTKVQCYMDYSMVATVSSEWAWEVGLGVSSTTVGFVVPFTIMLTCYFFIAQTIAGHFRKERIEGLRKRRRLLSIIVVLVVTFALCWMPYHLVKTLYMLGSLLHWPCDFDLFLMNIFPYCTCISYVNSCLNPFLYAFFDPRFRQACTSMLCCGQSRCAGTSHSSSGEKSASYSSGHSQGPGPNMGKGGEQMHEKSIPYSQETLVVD

[4] = molecular target: T1, C-C chemokine receptor type 6; experiment: CCR6 receptor antagonists, dose response, cell-based, luminescent beta-arrestin readout (AID 504728); format: functional
HT-1080 = experiment: cytotoxicity in HT1080 fibrosarcoma cells, cell-based, fluorescence readout (AID 620); format: functional; conditions: Homo sapiens
[5] = HepG2 cell cytotoxicity, dose response, cytotoxicity control for non-replicating M. tuberculosis project (AID 489018); format: functional; conditions: Mycobacterium tuberculosis
[6] = C. albicans growth with fluconazole, confirmation, fluorescence, retest (AID 2467); format: functional, cell-based
[7] = molecular target: Dual specificity tyrosine-phosphorylation-regulated kinase 1A (Rattus norvegicus, UniProt Q63470); format: biochemical, Homo sapiens
[8] = NIH-3T3 fibroblast cytotoxicity, dose response, cytotoxicity control, cell-based, fluorescence, Alamar Blue, secondary assay (AID 2327); format: functional;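 note: NIH-3T3 mouse fibroblasts cultured with fluconazole at 8 µg/mL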
[9] = molecular target: Dual specificity protein kinase CLK1 (Homo sapiens, UniProt P49759); experiment: CLK1 kinase inhibitors, off-target check, dose response, selectivity assay for Dyrk1A inhibitor project, biochemical, cherry-picked samples (AID 588811)
Dual specificity protein kinase CLK1, sequence (P49759 whole entry, the tested form may be a part): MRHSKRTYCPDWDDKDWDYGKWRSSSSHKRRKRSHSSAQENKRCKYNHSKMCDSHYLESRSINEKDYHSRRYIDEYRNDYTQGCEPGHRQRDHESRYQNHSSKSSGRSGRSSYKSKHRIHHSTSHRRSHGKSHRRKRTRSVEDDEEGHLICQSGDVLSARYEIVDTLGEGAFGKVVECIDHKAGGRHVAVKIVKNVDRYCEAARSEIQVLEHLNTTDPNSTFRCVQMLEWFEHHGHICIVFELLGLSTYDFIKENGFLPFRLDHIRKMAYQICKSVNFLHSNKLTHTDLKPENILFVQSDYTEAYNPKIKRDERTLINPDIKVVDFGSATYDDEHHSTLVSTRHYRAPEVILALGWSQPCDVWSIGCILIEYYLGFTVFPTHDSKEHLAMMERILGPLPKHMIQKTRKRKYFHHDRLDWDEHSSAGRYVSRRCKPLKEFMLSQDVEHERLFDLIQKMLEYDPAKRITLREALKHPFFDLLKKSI

[10] = molecular target: T3, Oxysterols receptor LXR-beta (Homo sapiens, UniProt P55055); format: functional, cell-based;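 note: Cell-based luminescence dose-response assay of agonist activity at LXR, run as a confirmatory counterscreen to a daf-12 agonist screen; HEK293 cells with Gal4-LXR fusion and GAL4-driven luciferase reporter; agonist potency from rising luciferase signal of a Gal4-LXR reporter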
T3 sequence (P55055 whole entry): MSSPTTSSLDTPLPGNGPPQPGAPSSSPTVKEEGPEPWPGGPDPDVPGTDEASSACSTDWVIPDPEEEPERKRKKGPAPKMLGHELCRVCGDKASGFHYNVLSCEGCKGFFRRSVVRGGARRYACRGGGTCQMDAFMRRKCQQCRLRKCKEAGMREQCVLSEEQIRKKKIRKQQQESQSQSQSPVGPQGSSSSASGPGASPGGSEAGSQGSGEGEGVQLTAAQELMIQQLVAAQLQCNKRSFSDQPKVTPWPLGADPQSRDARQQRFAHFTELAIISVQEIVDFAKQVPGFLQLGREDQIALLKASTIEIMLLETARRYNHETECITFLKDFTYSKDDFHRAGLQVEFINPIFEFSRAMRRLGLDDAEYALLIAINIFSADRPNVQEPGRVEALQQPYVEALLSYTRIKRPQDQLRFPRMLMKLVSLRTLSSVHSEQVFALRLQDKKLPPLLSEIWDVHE

[11] = inhibitors of SNCA 5'UTR-driven reporter translation, confirmation, H4 neuroglioma cells, luminescence (AID 1988); format: functional, cell-based
cells [12] = format: functional
[13] = THP-1 cell cytotoxicity, dose response, cytotoxicity control for non-replicating M. tuberculosis project (AID 489025); format: functional
[14] = Vero E6 cell cytotoxicity, dose response, cytotoxicity control for non-replicating M. tuberculosis project, secondary assay (AID 492998); format: functional, VeroE6; conditions: Vero C1008
cells [15] = experiment: cells
[16] = molecular target: T4, Luciferin 4-monooxygenase (Photinus pyralis, UniProt P08659); experiment: Counter Screen for Luciferase-based Assay Positives. [Related pubchem assays: 620, 618, 411 ]
T4 sequence (P08659 whole entry): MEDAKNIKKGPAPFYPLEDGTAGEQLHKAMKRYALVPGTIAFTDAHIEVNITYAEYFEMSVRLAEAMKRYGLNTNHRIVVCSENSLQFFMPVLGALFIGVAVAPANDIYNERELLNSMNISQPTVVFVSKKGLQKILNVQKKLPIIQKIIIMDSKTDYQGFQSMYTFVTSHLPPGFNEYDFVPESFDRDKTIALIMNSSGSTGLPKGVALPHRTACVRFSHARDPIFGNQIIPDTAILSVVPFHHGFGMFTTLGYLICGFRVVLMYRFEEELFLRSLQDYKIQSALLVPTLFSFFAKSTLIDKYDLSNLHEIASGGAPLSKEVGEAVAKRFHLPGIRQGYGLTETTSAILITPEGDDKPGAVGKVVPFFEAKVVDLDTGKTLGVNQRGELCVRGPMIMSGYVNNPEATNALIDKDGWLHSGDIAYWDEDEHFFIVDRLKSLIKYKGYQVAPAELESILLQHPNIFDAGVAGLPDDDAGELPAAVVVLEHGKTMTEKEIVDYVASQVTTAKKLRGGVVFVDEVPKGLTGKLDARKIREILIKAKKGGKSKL

[17] = molecular target: Glycogen synthase kinase-3 alpha (Homo sapiens, UniProt P49840); experiment: Inhibition of Human GSK-3 alpha Activity Measured in Biochemical System Using Microfluidics - 2063-06_Inhibitor_Dose_DryPowder_Activity. [Related pubchem assays (depositor defined):AID2709]
Glycogen synthase kinase-3 alpha, sequence (P49840 whole entry): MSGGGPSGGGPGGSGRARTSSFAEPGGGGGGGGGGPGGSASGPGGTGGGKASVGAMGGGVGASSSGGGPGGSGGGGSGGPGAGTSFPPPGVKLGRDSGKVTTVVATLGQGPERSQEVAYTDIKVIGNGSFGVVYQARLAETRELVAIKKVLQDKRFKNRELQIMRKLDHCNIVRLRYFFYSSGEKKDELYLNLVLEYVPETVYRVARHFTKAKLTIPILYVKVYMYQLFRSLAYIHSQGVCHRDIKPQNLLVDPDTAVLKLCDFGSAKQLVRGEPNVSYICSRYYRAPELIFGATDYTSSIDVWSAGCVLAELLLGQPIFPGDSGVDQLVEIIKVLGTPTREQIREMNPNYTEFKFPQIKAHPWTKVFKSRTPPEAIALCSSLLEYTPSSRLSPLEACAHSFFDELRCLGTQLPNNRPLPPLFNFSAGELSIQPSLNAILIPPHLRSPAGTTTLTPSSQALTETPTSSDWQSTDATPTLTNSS

[18] = molecular target: Glycogen synthase kinase-3 beta (Homo sapiens, UniProt P49841); experiment: Inhibition of Human GSK-3 beta Activity Measured in Biochemical System Using Microfluidics - 2063-05_Inhibitor_Dose_DryPowder_Activity. [Related pubchem assays (depositor defined):AID2709]
Glycogen synthase kinase-3 beta, sequence (P49841 whole entry): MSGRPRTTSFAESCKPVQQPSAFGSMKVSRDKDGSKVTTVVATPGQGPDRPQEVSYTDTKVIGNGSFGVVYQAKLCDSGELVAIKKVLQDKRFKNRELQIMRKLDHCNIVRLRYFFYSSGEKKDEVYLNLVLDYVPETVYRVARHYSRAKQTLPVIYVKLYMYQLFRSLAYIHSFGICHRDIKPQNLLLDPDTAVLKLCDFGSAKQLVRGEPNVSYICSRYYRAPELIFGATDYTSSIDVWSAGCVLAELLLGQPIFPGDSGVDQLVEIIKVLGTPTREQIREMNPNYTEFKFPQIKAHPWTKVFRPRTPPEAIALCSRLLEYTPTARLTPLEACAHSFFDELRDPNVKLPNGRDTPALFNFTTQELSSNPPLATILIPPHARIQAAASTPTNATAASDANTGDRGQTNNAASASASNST

Troponin, cardiac muscle = Troponin, cardiac muscle (Homo sapiens, UniProt P19429+P45379+P63316); experiment: Fluorescence-based biochemical high throughput dose response assay for activators of the calcium sensitivity of cardiac Regulated Thin Filaments (RTF). [Related pubchem assays (depositor defined):AID493008, AID493018, AID504382, AID504383]; format: protein-complex assay
[19] = molecular target: T5, E3 ubiquitin-protein ligase XIAP (Homo sapiens, UniProt P98170); experiment: XIAP antagonists, biochemical, IAP family, fluorescence polarization (AID 1018); format: functional
T5 sequence (P98170 whole entry): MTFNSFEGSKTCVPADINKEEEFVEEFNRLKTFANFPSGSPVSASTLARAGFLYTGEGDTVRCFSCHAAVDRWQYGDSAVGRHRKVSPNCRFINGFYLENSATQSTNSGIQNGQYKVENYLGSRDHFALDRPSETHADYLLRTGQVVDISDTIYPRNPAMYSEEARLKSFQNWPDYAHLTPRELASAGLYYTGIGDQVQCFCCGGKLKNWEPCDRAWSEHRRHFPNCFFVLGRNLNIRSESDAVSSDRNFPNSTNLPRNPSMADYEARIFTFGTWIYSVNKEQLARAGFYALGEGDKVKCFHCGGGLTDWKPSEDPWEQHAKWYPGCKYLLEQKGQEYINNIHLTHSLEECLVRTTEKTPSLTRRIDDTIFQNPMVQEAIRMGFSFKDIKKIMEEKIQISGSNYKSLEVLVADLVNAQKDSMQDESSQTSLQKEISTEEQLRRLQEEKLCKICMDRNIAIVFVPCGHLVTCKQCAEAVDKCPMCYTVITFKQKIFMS

[20] = molecular target: T5, E3 ubiquitin-protein ligase XIAP; experiment: Counter Screen using XIAP-Bir3 for Chemical Antagonists of Bir1/2 domains of IAP-family anti-apoptotic proteins. [Related pubchem assays (depositor defined):AID1018, AID1449, AID1514, AID1638, AID1749, AID1750, AID488957, AID488963]
CHO = experiment: cytotoxicity in TLR9-MyD88 CHO cells, dose response, cytotoxicity control for TLR9-MyD88 binding inhibitor project, cell-based, luminescence (AID 588339); format: functional, hamster; conditions: Cricetulus griseus;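 note: CHO cells stably coexpressing TLR9 and MyD88 fusions from primary screen; compound exposure lasted 48 hours before viability readout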
[21] = inhibitors of cytokine-induced nitrite release, dose response, cell-based, Griess absorbance, INS-1E, dry powder, set 3 (AID 488870); format: functional; conditions: Rattus norvegicus
INS1 = experiment: inhibitors of cytokine-induced nitrite release, dose response, cell-based, Griess absorbance, INS-1E, dry powder, set 2 (AID 488868); format: functional; conditions: Rattus norvegicus
Streptococcus = experiment: Group A Streptococcus viability loss, dose response, counter-screen for streptokinase expression inhibitor project, luminescence, BacTiterGlo (AID 1915); format: functional, organism-based;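 note: potency for reduction of bacterial viability or growth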
Streptokinase A = molecular target: T6, Streptokinase A (Streptococcus pyogenes serotype M1, UniProt P10520); experiment: S. pyogenes streptokinase expression inhibitors, potency, dose response, plasminogen activation absorbance, OD405 (AID 1914); format: functional, Streptococcus pyogenes M1 GAS;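 note: secreted streptokinase activity via plasminogen activation per viability signal from cell pellet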
T6 sequence (P10520 whole entry): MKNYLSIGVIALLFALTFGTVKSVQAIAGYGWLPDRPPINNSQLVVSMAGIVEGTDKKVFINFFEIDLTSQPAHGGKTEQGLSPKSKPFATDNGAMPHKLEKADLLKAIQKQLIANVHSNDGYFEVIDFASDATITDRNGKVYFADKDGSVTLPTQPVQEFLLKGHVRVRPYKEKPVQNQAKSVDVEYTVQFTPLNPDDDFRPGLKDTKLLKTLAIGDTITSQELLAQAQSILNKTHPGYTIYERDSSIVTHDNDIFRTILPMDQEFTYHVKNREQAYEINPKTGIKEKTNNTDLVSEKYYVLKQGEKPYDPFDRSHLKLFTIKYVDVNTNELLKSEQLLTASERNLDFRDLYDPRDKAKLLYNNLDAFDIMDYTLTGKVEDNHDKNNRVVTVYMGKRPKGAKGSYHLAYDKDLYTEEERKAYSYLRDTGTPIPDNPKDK

[22] = molecular target: Heat shock protein HSP 90-alpha (Homo sapiens, UniProt P07900); format: functional, organism-based
[23] = molecular target: T4, Luciferin 4-monooxygenase; experiment: firefly luciferase enzyme inhibitors, dose response, biochemical, luminescence (AID 1891)
HSP90 = HSP90 (Plasmodium falciparum 3D7, UniProt Q8IL32); format: functional, organism-based
HSP90, sequence (Q8IL32 whole entry): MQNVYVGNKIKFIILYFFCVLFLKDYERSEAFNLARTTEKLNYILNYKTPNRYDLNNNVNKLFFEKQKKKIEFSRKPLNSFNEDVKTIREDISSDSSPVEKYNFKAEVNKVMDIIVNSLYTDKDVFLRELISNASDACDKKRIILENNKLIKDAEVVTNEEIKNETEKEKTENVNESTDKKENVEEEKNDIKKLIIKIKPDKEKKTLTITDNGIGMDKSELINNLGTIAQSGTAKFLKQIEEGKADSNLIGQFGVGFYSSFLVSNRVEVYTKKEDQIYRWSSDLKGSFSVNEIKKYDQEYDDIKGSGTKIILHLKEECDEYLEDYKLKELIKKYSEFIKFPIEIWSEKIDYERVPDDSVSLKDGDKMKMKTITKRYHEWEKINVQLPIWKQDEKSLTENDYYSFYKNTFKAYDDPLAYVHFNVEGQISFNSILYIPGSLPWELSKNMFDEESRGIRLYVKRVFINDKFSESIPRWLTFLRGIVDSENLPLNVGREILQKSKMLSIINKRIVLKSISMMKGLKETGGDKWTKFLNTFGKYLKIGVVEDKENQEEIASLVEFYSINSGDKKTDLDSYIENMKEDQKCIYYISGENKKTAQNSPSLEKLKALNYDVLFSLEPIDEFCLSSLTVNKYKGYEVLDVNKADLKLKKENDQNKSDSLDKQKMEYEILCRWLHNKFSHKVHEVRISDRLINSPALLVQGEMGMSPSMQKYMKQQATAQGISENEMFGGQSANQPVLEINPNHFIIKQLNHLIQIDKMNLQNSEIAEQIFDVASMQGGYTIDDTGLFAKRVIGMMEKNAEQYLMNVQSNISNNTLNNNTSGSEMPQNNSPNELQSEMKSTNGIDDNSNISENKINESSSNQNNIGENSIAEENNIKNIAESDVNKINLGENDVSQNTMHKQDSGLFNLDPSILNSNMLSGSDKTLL

[24] = Luminescence Cell-Based Dose Confirmation HTS to Identify Inhibitors of Platelet Dense Granule Release. [Related pubchem assays: 1663 (Primary HTS), 1678 (Summary of Project)]; format: functional
[25] = molecular target: T7, Endoribonuclease toxin MazF (Escherichia coli K-12, UniProt P0AE70); experiment: MazF toxin RNase activators, dose response, biochemical, fluorescence, single-stranded RNA substrate, uHTS hits (AID 588481); format: functional
T7 sequence (P0AE70 whole entry): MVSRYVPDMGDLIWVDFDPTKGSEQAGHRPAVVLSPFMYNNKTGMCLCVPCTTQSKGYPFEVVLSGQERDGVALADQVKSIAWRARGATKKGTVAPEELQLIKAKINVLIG

[26] = molecular target: T7, Endoribonuclease toxin MazF; experiment: fluorescent RNA oligo signal without MazF, dose response, counter-screen for MazEF activator project, biochemical, fluorescence, single-stranded RNase substrate (AID 588502); format: functional

Beta-galactosidase, sequence (Q8VNN2 whole entry): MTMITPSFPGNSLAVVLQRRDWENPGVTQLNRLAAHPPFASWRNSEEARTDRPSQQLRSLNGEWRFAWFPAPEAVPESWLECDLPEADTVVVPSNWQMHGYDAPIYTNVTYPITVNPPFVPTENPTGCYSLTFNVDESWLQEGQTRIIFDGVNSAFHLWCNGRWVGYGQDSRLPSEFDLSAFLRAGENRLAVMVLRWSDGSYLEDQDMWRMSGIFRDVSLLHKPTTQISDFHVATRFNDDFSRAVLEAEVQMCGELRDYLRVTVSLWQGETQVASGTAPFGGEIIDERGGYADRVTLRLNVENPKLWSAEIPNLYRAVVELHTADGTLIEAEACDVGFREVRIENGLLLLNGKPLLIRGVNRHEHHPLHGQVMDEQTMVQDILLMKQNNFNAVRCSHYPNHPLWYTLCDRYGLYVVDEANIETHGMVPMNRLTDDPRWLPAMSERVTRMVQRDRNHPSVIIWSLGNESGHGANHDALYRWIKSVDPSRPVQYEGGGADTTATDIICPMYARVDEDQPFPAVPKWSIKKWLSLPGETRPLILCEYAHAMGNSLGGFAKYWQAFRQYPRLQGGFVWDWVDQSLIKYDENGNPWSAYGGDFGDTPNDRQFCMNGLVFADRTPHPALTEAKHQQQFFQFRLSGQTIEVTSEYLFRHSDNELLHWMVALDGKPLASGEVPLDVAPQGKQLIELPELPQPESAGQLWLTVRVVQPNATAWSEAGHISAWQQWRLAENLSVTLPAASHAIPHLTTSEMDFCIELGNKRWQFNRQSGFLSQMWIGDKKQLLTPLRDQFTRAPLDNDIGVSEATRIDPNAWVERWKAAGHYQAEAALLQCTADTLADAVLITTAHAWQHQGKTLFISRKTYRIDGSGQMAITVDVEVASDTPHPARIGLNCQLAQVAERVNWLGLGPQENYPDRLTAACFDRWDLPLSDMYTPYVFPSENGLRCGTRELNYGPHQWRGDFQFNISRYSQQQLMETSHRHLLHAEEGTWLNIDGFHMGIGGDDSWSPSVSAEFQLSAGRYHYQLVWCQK

CN1C(=O)C(=C2CC(c3ccc(Cl)cc3)NN2)C(=O)N(C)C1=O (stereo unspecified)
IC50 (Beta-galactosidase): > 66.6 µM (inactive) | IC50 [1]: 9.24 µM (inactive) | IC50 [2]: 5.84 µM (active) | EC50 [3]: > 260 µM (inactive) | IC50 (Apelin receptor): 7.22 µM (active) | IC50 [4]: 14.9 µM (active)

Cc1cc(NCCCn2ccnc2)n2ncc(-c3ccc(Cl)cc3)c2n1
EC50 (HT-1080): 35 µM (active) | CC50 [5]: > 20 µM (active) | EC50 [6]: 3.66 µM (active) | AC50 [7]: 2.85 µM (active) | EC50 [8]: 21.8 µM (inconclusive) | AC50 [9]: 5.5 µM (active) | EC50 [10]: > 67.6 µM (inactive) | EC50 [11]: 9.97 µM (inconclusive) | IC50 (cells [12]): 11.1 µM (active) | CC50 [13]: 22 µM (active) | CC50 [14]: 7.48 µM (active) | EC50 (cells [15]): > 67.6 µM (inactive) | EC50 [16]: 2.18 µM (active)

CCCn1nc(NC(=O)c2cccs2)c2cc3cc(OC)ccc3nc21
AC50 [17]: 9.59 µM (active) | AC50 [18]: 445 nM (active)

CCC1(C)OC(c2ccccc2)=C/C(=C/C=C2C(=O)NC(=O)NC2=O)O1 (stereo unspecified)
EC50 (Troponin, cardiac muscle): 2.38 µM (active) | IC50 [19]: > 100 µM (not active) | IC50 [20]: > 100 µM (inactive) | IC50 (CHO): > 49.7 µM (inactive)

C[C@@H]1CN([C@@H](C)CO)C(=O)c2cccc(NC(=O)Nc3cccc4ccccc34)c2O[C@H]1CN(C)S(=O)(=O)c1ccccc1F
AC50 [21]: 32.7 µM (active) | AC50 (INS1): 48.6 µM (active)

COc1ccccc1/N=c1\oc2cc(O)ccc2cc1C(N)=O
EC50 (Streptococcus): 42 µM (active) | EC50 (Streptokinase A): > 150 µM (not active) | AC50 [22]: 17.3 µM (active) | AC50 [7]: 0.139 µM (active) | EC50 [23]: 1.15 µM (active) | AC50 (HSP90): 27.5 µM (active) | EC50 [24]: 3.1 µM (active)

Oc1nc(N/N=C\c2ccc(F)cc2)nc2ccccc12
EC50 [25]: 7.12 µM (active) | EC50 [26]: > 99 µM (inactive)
